Source: a melting point compilation (Tetko et al.; mined from patent text by program, amines drawn as free bases though some values may be those of a salt)

Structure (SMILES)	melting point [°C]
Fc1cc(OCc2ccccc2)ccc1-c1ncc(Br)cn1	124
OC1CN2[C@H]3CC[C@@H]2[C@@H]1[C@@H](c1ccc(Cl)c(Cl)c1)C3 (stereo partly drawn)	156 to 158
O=S(=O)(CCCc1nc(-c2ccc(F)cc2)c(-c2ccncc2)[nH]1)c1ccccc1	109 to 110
O=C(Cn1c(-c2nonc2NCCCO)nc2ccccc21)c1ccc(Cl)cc1	166 to 169
Nc1cc(OCC(O)CO)ccc1[N+](=O)[O-] (stereo not drawn)	139
CCn1cc(C(=O)NO)c(=O)c2ccc(-c3ccncc3)cc21	245
CC(C)N(O)C(=O)c1c(Cl)cccc1[Si](C)(C)C	175 to 179
CCOc1cc(OCC(=O)N2CCN(C(=O)OC(C)(C)C)CC2)cc2c1C(=O)N(COC(=O)c1c(Cl)cccc1Cl)S2(=O)=O	193 to 195
CC1Cc2nc(N)nc(Cl)c2C1 (stereo not drawn)	182 to 183
O=C(CCl)Nc1ccc(-c2nc3ccccc3s2)cc1I	192 to 194
COc1cc2c(cc1OC)C(O)C(N1CCC(N3c4ccccc4NC3C)CC1)C2 (stereo not drawn)	255 to 256
COc1ccc(CN2C(=O)[C@@H](NC(=O)Cc3ccccc3)[C@H]2CO)c(OC)c1 (relative stereo)	152 to 154
Nc1nc(SCc2ccccc2)nn1-c1nnc(-c2ccccc2O)s1	198 to 201
COC(=O)c1ccc2c(C(C(=O)NS(=O)(=O)c3ccc(C)cc3OC)c3ccc4c(c3)OCO4)cn(C)c2c1 (stereo not drawn)	184 to 185
CCOC(=O)CCc1cc(O)ccc1-c1ccc(-c2cccc(C)c2)c(CO)c1	57 to 59
Cc1ccccc1-c1c(C2CCN(C)CC2)[nH]c(=O)c2ccccc12	249 to 251
O=c1[nH]c2cc(Cl)cc(Cl)c2c(-c2cc(Cl)ccc2O)c1O	297 to 299
O=C(c1ccc(F)cc1)C1(c2ccc(F)cc2)CCN(Cc2ccccc2)CC1	136 to 138
O=C(Nc1cccc(S(=O)(=O)C(F)(F)F)c1)c1ccc2ccccc2c1O	194 to 195
CC(=O)c1ccc2ccc3ccccc3c2n1	113 to 115
CCCCCCCCCCOc1cc(OCCCCCCCCCC)cc(C(=O)O)c1	56 to 58

Structure (SMILES)	melting point [°C]
FC(F)(F)Oc1ccc(-n2cc(Br)cn2)cc1	63 to 65
CC(Cc1ccccc1)NC(=O)C(F)(F)F (stereo not drawn)	82 to 83
Fc1ccc(-c2c(-c3ccccc3)oc3ncnc(Cl)c23)cc1	124 to 127
CCCN(C(=O)C(F)(F)F)c1ccc(I)cc1	177 to 179
CN(C)CCn1ccc(-c2ccc(F)cc2)c1-c1ccncc1	70 to 73
O=[N+]([O-])c1ccc(OC2OC(CO)C(O)C2O)cc1 (stereo not drawn)	156 to 158
CCCC(CC1CCc2c(cccc2OCC(=O)OC)C1)=NO (stereo not drawn)	95.9 to 97
Cc1ccc(N2CCN(Cc3ccc4c(c3)NC(=O)CO4)CC2)cc1	209 to 212
CC(Oc1ncn(-c2ccc(Cl)cc2Cl)n1)C(=O)O (stereo not drawn)	151 to 153
CCOC(=O)C(Cc1ccc(C(C)C)cc1)C(=O)N[C@@H](CC(C)C)C(=O)OC(C)(C)C (stereo partly drawn)	68 to 73
CCCCCS(=O)(=O)NC(=O)CCc1ccc(OCCOC)cc1OCC1CCCO1 (stereo not drawn)	57.8 to 58.9
CC(=O)Nc1cccc2c1C(=O)c1c-2n[nH]c1-c1ccc(C(F)(F)F)cc1	> 300
CC(C)(C)OC(=O)NCCOc1noc2c(C#N)cccc12	91 to 92
CSC1=NCCc2nc(C)nn21	75.5 to 76.5
O=C(Nc1ccccc1)Nc1cc(F)ccc1C(=O)O	163 to 166
CSc1ccc(-c2cnn(Cc3ccccc3)c(=O)c2Br)cc1	115 to 118
CS(=O)(=O)c1ccc(-c2cccn2-c2ccc(F)cc2F)cc1	122 to 125
Cc1nc(-c2ccc(Br)cc2)sc1C(=O)N[C@H](C)[C@](O)(Cn1cncn1)c1ccc(F)cc1F	165 to 166
CC(C)(C)c1cc(CCc2ccccc2NC(=O)NCCCc2ccccc2)cc(C(C)(C)C)c1O	161 to 162
CC(O)(Cc1cncs1)c1ccc(Cl)cc1Cl (stereo not drawn)	164
N#Cc1c(NC(=O)C2CCCCC2)sc(-c2ccccc2)c1[N+](=O)[O-]	213 to 214

Structure (SMILES)	melting point [°C]
COc1cc(Cc2cnc(N)nc2N)c2ccccc2c1OC	228 to 230
CCOC(=O)c1c2ccc(CC(=O)NOC(=O)NC)ccc-2c(C(=O)OCC)c1N	222 to 224
O=C1CCCC(O)=C1NC(=O)C1CC1	82
CN(c1ccc(C(=O)O)cc1)c1cc2c3c(c1)CCCC3(C)CCC2	257 to 258
COc1ccc(-c2cc(C(=O)O)n(C)n2)cc1	190 to 193
Cn1c(C#N)ccc1-c1ccc2c(c1)C(C)(C)OC(=S)N2	228 to 229
Brc1n[nH]c2ccccc12	136
Cn1c(-c2ccc(Br)cc2)cnc1[C@H](Cc1ccccn1)N(C=O)c1cc2cc(Cl)ccc2o1	185 to 188
CCN(C(=O)Cn1c(=O)n(C)c2nc(-c3ccccc3)ncc21)c1ccccc1	240 to 242
FC(F)(F)c1cccc(CN2C(=NCCCn3ccnc3)c3cccc4cccc2c34)c1	108 to 109
O=C1C(c2ccc3c(c2)OCO3)c2ccccc2N1Cc1ccc(Cl)cc1 (stereo not drawn)	161 to 163
CC(C)(C)C(=O)c1c[nH]c2ncc(Cl)nc12	209 to 210
COC(=O)c1ccc(C(O)COc2ccc3c(c2)C(C)(C)CCC3(C)C)cc1 (stereo not drawn)	92 to 96
CC(=O)Nc1cc(-n2c(=O)cc(C(F)(F)F)n(C)c2=O)c(F)cc1Cl	257 to 258
CCCCCC(NC(C)C)=C1C(=O)ON=C1C	99 to 101
COc1cc(C)cc(OC)c1C1=NC(NC(=O)Nc2cccc(C)c2)C(=O)N(C)c2ccccc21 (stereo not drawn)	260
C[C@@H](n1cnc2cc(N(C)C)c(F)cc2c1=O)[C@](O)(Cn1cncn1)c1ccc(F)cc1F	197 to 198
CCC(Oc1ccccc1)C(=O)OC1CC(O)C=C2C=CC(C)C(CCC3CC(O)CC(=O)O3)C21 (mixture of isomers)	120 to 122
N#Cc1c(=O)[nH]c2cc(Cl)c(Cl)cc2[n+]1[O-]	294 to 296
Cc1cc(O)c(S(C)(=O)=O)cc1C(=O)N=C(N)N	> 260
COc1cc2ncnc(Nc3cc(Cl)c(O)c(Cl)c3)c2cc1OC	293 to 295

The next lines start with the values.

melting point [°C]	Structure (SMILES)
189 to 191	O=C(c1ccc(Cl)cc1)N1CCCC2=C1CCc1cc(Cl)ccc12
> 250	O=C(NS(=O)(=O)c1cc(C(F)(F)F)ccc1Cl)c1cn2cc(Br)cnc2n1
133 to 135	CCCc1c(OCC2COc3c(F)cc(CC(=O)O)cc32)ccc(C(C)=O)c1O (stereo not drawn)
66 to 68	COC(=O)CC[C@@H](C(N)=O)N1Cc2c(OCc3ccc(CN4CCOCC4)cc3)cccc2C1=O
145 to 156	CC(C)C=CC1(C(F)(F)F)OCC(=O)Nc2ccc(F)cc21 (stereo not drawn)
90 to 92	CC(C)(C)OC(=O)ON=C(C#N)c1cccc2ccccc12
200 to 202	CS(=O)(=O)Nc1ccc(CC(NC(=O)C(c2ccccc2)c2ccccc2)c2ccccc2)cc1 (stereo not drawn)
169	CC(C)CCNC(=O)c1ccccc1-c1ccccc1CN1C(=O)c2ccccc2C1=O
73 to 74	c1ccc(COc2cccnc2Cn2ccnc2)cc1
98 to 99	CCNC(=O)c1cc(Cl)ccc1Br
140 to 141	COc1c(C(=S)NCCNC2CCCCCC2)cc(C)c2ccccc12
134 to 136	COc1cc(OC)c(-c2cc3ccccc3s2)cc1C=O
125 to 126	COC(=O)/C=C(\C)c1ccc(OCc2nc(-c3ccccc3)oc2C)cc1
> 250	CCOC(=O)C1=C(C)NC(c2cnc(NC(C)=O)s2)=NC1c1ccc(F)cc1Cl (stereo not drawn)
130 to 133	COc1ccc(S(=O)(=O)N(CC(C)C)CC(O)C(Cc2ccccc2)NC(=O)C(C)CS(C)(=O)=O)cc1OC (stereo not drawn)
133 to 134	CC12CCC(=O)C=C1CCC1C2=CCC2(C)C(=C(Cl)C(Cl)S(=O)c3ccccc3)CCC12 (stereo not drawn)
96 to 98	CS(=O)(=O)Oc1ccc([N+](=O)[O-])c(OCCBr)c1
104 to 106	CC1(C2CCCC2)Cc2cc(OS(=O)(=O)C(F)(F)F)c(Cl)c(Cl)c2C1=O (single isomer, unassigned; (+))

melting point [°C]	Structure (SMILES)
77 to 79	CCCCCCCCCCCCCCOc1cc(OCCCCCCc2cccc(O)c2O)cc(C(=O)OC)c1
79 to 80	Cc1ccc(C)c(OCCCC(C)(C)C(=O)Nc2ccc(F)cc2F)c1
174	CNS(=O)(=O)c1cccc(-c2cc(-c3nc(-c4ccc(C(F)(F)F)cc4)cc(C(F)(F)F)n3)ccn2)c1
145 to 148	CCOC(=O)C(Cl)=NNc1ccc(Cl)cc1
152 to 154	CC1=C(/C=C/C(C)=C/C=C/C(C)=C\C(=O)O)C(C)(C)C(O)CC1 (stereo not drawn)
76.1 to 77.3	CCCCC(CC)C(=O)NCCCCCCCCCCCOCC(O)CNCCO (stereo not drawn)
222 to 226	Cc1cccc2c1COC(=O)N2
106 to 109	CCCCCCN(Cc1ccc2ccccc2n1)C(Nc1ccc(OC)cc1OC)=C1C(=O)OC(C)(C)OC1=O
123 to 125	COc1cc2c(cc1OCc1ccccc1)C(c1ccccc1)NCC2 (stereo not drawn)
79.7 to 82.5	O=C(CCCC(=O)C(F)(F)F)c1ccc(-c2cccc3ccccc23)cc1
205	CNC(=O)c1ccn2c(C(=O)N3CCNCC3)c(Cc3cccc(F)c3C)c(-c3ccccc3)c2c1
230 to 233	O=CNCC1CN(c2c(F)cc3c(=O)c(C(=O)O)cn(-c4ccc(F)cc4F)c3c2F)CCO1 (stereo not drawn)
148 to 158	COC(=O)c1csc2c(=O)cc(C(F)(F)F)oc12
179 to 181	OC[C@H](O)COc1nc(Oc2ccc(F)cc2F)nc2[nH]nc(-c3ccccc3Cl)c12
217	Cc1cc(-c2cc(C(F)(F)F)n3cnc(C#N)c3n2)ccc1C(F)(F)F
135 to 138	Cc1cncc2ncc(-c3ccccc3)cc12
> 90	Cc1nc2c(Br)cc(Br)cn2c1C
